From patent publication US7348349B2, “Oxazole derivatives” (Hoffmann-La Roche Inc., priority 2002, dated 2008) come the findings set out here.

Where two headings read alike, the source gives them in different places.

Assay [1] addresses T1, mouse PPARγ (Mus musculus, UniProt P37238).
T1 sequence (P37238 204-505): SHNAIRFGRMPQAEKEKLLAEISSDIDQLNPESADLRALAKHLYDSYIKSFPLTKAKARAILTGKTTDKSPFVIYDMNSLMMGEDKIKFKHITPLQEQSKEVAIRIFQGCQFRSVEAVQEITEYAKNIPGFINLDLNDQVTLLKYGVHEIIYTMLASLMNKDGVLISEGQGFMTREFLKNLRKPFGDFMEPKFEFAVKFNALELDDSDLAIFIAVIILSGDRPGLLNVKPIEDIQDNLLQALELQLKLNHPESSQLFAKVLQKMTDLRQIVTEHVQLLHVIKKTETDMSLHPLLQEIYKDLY
The experiment in a line: Radioligand binding assay (SPA), GST-PPARγ-LBD. Also noted: PPARγ (aa 174 to 476). An excerpt:
(§1) Full-length cDNA clones for human PPARα and mouse PPARγ were obtained by RT-PCR from human adipose and mouse liver cRNA, respectively, cloned into plasmid vectors and verified by DNA sequencing. […] To accomplish this, the portions of the cloned sequences encoding the LBDs were amplified from the full-length clones by PCR and then subcloned into the plasmid vectors. Final clones were verified by DNA sequence analysis.
(§2) Induction, expression, and purification of GST-LBD fusion proteins were performed in E. coli strain BL21(pLysS) cells by standard methods (Ref: Current Protocols in Molecular Biology, Wiley Press, edited by Ausubel et al.).
(§3) PPARγ receptor binding was assayed in TKE50 (50 mM Tris-HCl, pH 8, 50 mM KCl, 2 mM EDTA, 0.1 mg/ml fatty acid-free BSA and 10 mM DTT). For each 96 well reaction an 140 ng equivalent of GST-PPARγ-LBD fusion protein was bound to 10 ug SPA beads (PharmaciaAmersham) in a final volume of 50 ul by shaking. The resulting slurry was incubated for 1 h at RT and centrifuged for 2 min at 1300 g. The supernatant containing unbound protein was removed and the semidry pellet containig the recptor-coated beads was resolved in 50 ul of TKE. For radioligand binding e.g. 10000 dpm 2(S)-(2-benzoyl-phenylamino)-3-{4-[1,1-ditritio-2-(5-methyl-2-phenyl-oxazol-4-yl)-ethoxy]-phenyl}-propionic acid in 50 ul were added, the reaction incubated at RT for 1 h and scintillation proximity counting performed. All binding assays were performed in 96 well plates and the amount of bound ligand measured on a Packard TopCount using OptiPlates (Packard). Nonspecific binding was determined in the presence of 10^−4 M unlabelled compound. Dose response curves were done in triplicates within a range of concentration from 10^−10 M to 10^−4 M.

The target in assay [2] is T2, human PPARα (Homo sapiens, UniProt Q07869).
T2 construct: PPARγ (aa 174 to 476) and PPARα (aa 167 to 469); made in house; host or cells: E. coli BL21(pLysS)
T2 sequence (Q07869 167-468 limits assumed): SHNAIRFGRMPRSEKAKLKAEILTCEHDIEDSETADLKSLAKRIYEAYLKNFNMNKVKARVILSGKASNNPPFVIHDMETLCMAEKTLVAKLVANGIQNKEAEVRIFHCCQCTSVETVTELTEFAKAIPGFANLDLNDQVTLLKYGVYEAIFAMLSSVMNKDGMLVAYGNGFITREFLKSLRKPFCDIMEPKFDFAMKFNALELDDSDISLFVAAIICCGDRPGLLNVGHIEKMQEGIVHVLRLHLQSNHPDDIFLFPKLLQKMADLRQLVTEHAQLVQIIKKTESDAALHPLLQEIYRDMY
The assay is described as follows: Luciferase transcriptional reporter gene assay, pFA-PPARα-LBD in BHK21 cells. The assay is classed as cell-based. The method, then: as §1
(§4) Baby hamster kidney cells (BHK21 ATCC CCL10) were grown in DMEM medium containing 10% FBS at 37° C. in a […] atmosphere. Cells were seeded in 6 well plates at a density of 10^5 Cells/well and then transiently batch-transfected with either the pFA-PPARγ-LBD or pFA-PPARα-LBD expression plasmids plus a reporter plasmid and an expression plasmid encoding the secretable form of alkaline phosphatase (SEAP) as a normalization control. […] Six hours following transfection, the cells were harvested by trypsinization and seeded in 96 well plates at a density of 10^4 cells/well. After 24 hours to allow attachment of cells, the medium was removed and replaced with 100 ul of phenol red-free medium containing the test substances or control ligands (final DMSO concentration: 0.1%). Following incubation of the cells for 24 hours with substances, 50 ul of the supernatant was recovered and analyzed for SEAP activity (Roche Molecular Biochemicals). The remainder of the supernatant was discarded, 50 ul PBS was added per well followed by one volume of Luciferase Constant-Light Reagent (Roche Molecular Biochemicals) to lyse the cells and initiate the luciferase reaction. Luminescence for both SEAP and luciferase was measured in a Packard TopCount. Luciferase activity was normalized to the SEAP control and transcriptional activation in the presence of a test substance was expressed as fold-activation over cells incubated in the absence of the substance. EC50 values were calculated using the XLfit program (ID Business Solutions Ltd. UK).
For orientation: A reporter such as luciferase makes a cellular process visible.

The target of assay [3] is T1, mouse PPARγ. The experiment in a line: Luciferase transcriptional reporter gene assay, pFA-PPARγ-LBD in BHK21 cells. The assay is classed as cell-based. Also noted: PPARγ (aa 174 to 476) and PPARα (aa 167 to 469); expressed in transfected cells; host or cells: BHK21 (ATCC CCL10). The method, then: as §1, §4
Assay [4] addresses T2, human PPARα. The experiment in a line: Radioligand binding assay, GST-PPARα-LBD.
Source text: as §1, §2
PPARα receptor binding was assayed in TKE10 (10 mM Tris-HCl, pH 8, 50 mM KCl, 2 mM EDTA, 0.1 mg/ml fatty acid free BSA and 10 mM DTT). For each 96 well 2.4 ug equivalent of GST-PPARα-LBD fusion protein and radioligand, e.g. 40000 dpm 2(S)-(2-benzoyl-phenylamino)-3-{4-[1,1-ditritio-2-(5-methyl-2-phenyl-oxazol-4-yl)-ethoxy]-phenyl}-propionic acid, were incubated in 100 ul volume at RT for 2 hrs. Bound ligand was removed from unbound ligand by solid phase separation using MultiScreen plates (Millipore) filled with 80 ul of SG25 according to the manufacturer's recommendations.
as §3

Setting [5] is: GST-PPARγ-LBD on SPA beads, tritiated radioligand, RT 1 h, read-out: PPARγ IC50.
[6] abbreviates: BHK21 cells transfected with pFA-PPARγ-LBD, 24 hours incubation, read-out: PPARγ EC50.
Where [7] appears, read: BHK21 cells transfected with pFA-PPARα-LBD, 24 hours incubation, read-out: PPARα EC50.
Where [8] appears, read: GST-PPARα-LBD, tritiated radioligand, RT 2 hrs, read-out: PPARα IC50.

As for `CCO[C@@H](Cc1ccc(OCCCc2nc(-c3ccccc3)oc2C)cc1C)C(=O)O` [Example 43, (S)-2-Ethoxy-3-{2-methyl-4-[3-(5-methyl-2-phenyl-oxazol-4-yl)-propoxy]-phenyl}-propionic acid], the IC50 (as a rule, the midpoint of a concentration-inhibition curve) on mouse PPARγ [1] (setting [5]) is 0.033 µM; at human PPARα [4] it was 0.131 µM. Besides, the results for the EC50 at human PPARα [2] and at mouse PPARγ [3] (setting [6]) were 0.15 µM and 0.057 µM, respectively.

As to `CCO[C@@H](Cc1ccc(OCc2nc(-c3ccc(OC(C)C)cc3)oc2C)cc1Cl)C(=O)O` [Example 17, (S)-3-{2-Chloro-4-[2-(4-isopropoxy-phenyl)-5-methyl-oxazol-4-ylmethoxy]-phenyl}-2-ethoxy-propionic acid], the IC50 at mouse PPARγ [1] was 0.031 µM; on human PPARα [4] (setting [8]), 0.073 µM. Besides, the EC50 (usually the concentration needed to bring the measured effect to its halfway point) on human PPARα [2] (setting [7]) worked out at 0.186 µM; at mouse PPARγ [3], 0.174 µM.

For `CCO[C@@H](Cc1c(C)cc(OCc2nc(-c3ccccc3)oc2C)cc1C)C(=O)O` [Example 29, (S)-3-[2,6-Dimethyl-4-(5-methyl-2-phenyl-oxazol-4-ylmethoxy)-phenyl]-2-ethoxy-propionic acid], the results for the IC50 on mouse PPARγ [1] and on human PPARα [4] (setting [8]) were 1.73 µM and 2.38 µM, respectively. Also, the EC50 is 0.213 µM at human PPARα [2] (setting [7]) and 0.678 µM at mouse PPARγ [3].

Regarding `CCO[C@@H](Cc1ccc(OCc2nc(-c3ccc(F)c(C)c3)oc2C)cc1CC)C(=O)O` [Example 9, (S)-2-Ethoxy-3-{2-ethyl-4-[2-(4-fluoro-3-methyl-phenyl)-5-methyl-oxazol-4-ylmethoxy]-phenyl}-propionic acid], the IC50 on mouse PPARγ [1] was 0.129 µM; on human PPARα [4] (setting [8]), 0.196 µM. The EC50 came out at 0.021 µM on human PPARα [2] (setting [7]) and 0.033 µM at mouse PPARγ [3].

Regarding `CO[C@@H](Cc1ccc(OCCc2nc(-c3ccccc3)oc2C)cc1O)C(=O)O` [Example 23, (S)-3-{2-Hydroxy-4-[2-(5-methyl-2-phenyl-oxazol-4-yl)-ethoxy]-phenyl}-2-methoxy-propionic acid], the IC50 came to 0.048 µM at mouse PPARγ [1] (setting [5]) and 0.052 µM at human PPARα [4]. The EC50 came to 0.306 µM on human PPARα [2] and 0.138 µM at mouse PPARγ [3] (setting [6]).

Take `CCO[C@@H](Cc1ccc(OCc2nc(-c3ccccc3)oc2C)cc1C)C(=O)O` [Example 3, (S)-2-Ethoxy-3-[2-methyl-4-(5-methyl-2-phenyl-oxazol-4-ylmethoxy)-phenyl]-propionic acid]: the IC50 on mouse PPARγ [1] was 0.506 µM; on human PPARα [4] (setting [8]), 0.087 µM. For the same compound, the figures for the EC50 on human PPARα [2] (setting [7]) and at mouse PPARγ [3] were 0.057 µM and 0.087 µM, respectively.

On to `CCO[C@@H](Cc1ccc(OCc2nc(-c3ccc(C(C)C)cc3)oc2C)cc1OC)C(=O)O` [Example 25, (S)-2-Ethoxy-3-{4-[2-(4-isopropyl-phenyl)-5-methyl-oxazol-4-ylmethoxy]-2-methoxy-phenyl}-propionic acid], for which the concentration for half-maximal inhibition (IC50) amounted to 0.129 µM at mouse PPARγ [1] and 0.177 µM on human PPARα [4] (setting [8]). In addition, the EC50 at human PPARα [2] (setting [7]) came out at 0.026 µM; at mouse PPARγ [3], 0.075 µM.

For `CCO[C@@H](Cc1ccc(OCc2nc(-c3ccc(F)c(C)c3)oc2C)cc1C)C(=O)O` [Example 5, (S)-2-Ethoxy-3-{4-[2-(4-fluoro-3-methyl-phenyl)-5-methyl-oxazol-4-ylmethoxy]-2-methyl-phenyl}-propionic acid], the IC50 at mouse PPARγ [1] stood at 0.146 µM; on human PPARα [4] (setting [8]), 0.155 µM. For the same compound, the EC50 at human PPARα [2] (setting [7]) came to 0.038 µM; on mouse PPARγ [3], 0.124 µM.

Take `CN(CCOc1ccc(CC2SC(=O)NC2=O)cc1)c1ccccn1` (centres unmarked) [Rosiglitazone, reference compound]: the “PPARα EC50” value at human PPARα [2] (BHK21 cells transfected with pFA-PPARα-LBD, 24 hours incubation) is “inactive”. Moreover, the “PPARα IC50” value on human PPARα [4] (GST-PPARα-LBD, tritiated radioligand, RT 2 hrs) was “inactive”.

As to `CCO[C@@H](Cc1ccc(OCc2nc(-c3ccc(OC(C)C)cc3)oc2C)cc1C)C(=O)O` [Example 2, (S)-2-Ethoxy-3-{4-[2-(4-isopropoxy-phenyl)-5-methyl-oxazol-4-ylmethoxy]-2-methyl-phenyl}-propionic acid], the IC50 on mouse PPARγ [1] is 0.058 µM; on human PPARα [4] (setting [8]) it was 0.03 µM. Moreover, the EC50 at human PPARα [2] (setting [7]) is 0.163 µM; on mouse PPARγ [3], 0.115 µM.
